Among the data in US9962341B2, “Active pharmaceutical ingredient (API) comprising cannabinoids for use in the treatment of cancer” (GW Pharma Limited, priority 2014, dated 2018) are IC50 values, retold here.

Holding throughout (assay type): cell-based
One assay has as its system RT112. Briefly: Cell viability (CellTiter-Blue, 72 h), RT112 bladder cancer cells. As to conditions: RT112, 1% FBS, 72 h; read-out: Cell line IC50 value. The procedure: (§1) The following cell lines were tested in this example: Lung Cancer (A549, NCI-H460); Pancreatic cancer (PANC1, Mia-Pa-Ca-2); Melanoma (WM115, A375); Ovarian cancer (OVCAR3, SKOV3); Gastric cancer (MKN45, HGC-27); Renal cancer (ACHN) and Bladder Cancer (RT112).
(§2) Each tumour cell line was maintained in vitro in RPMI 1640+10% heat inactivated FBS and 2 mM L-glutamine (growth media) at 37° C. in 5% CO2 and humidified conditions. The cells were harvested, washed, re-suspended into growth medium and counted. The cells were re-suspended into assay media (RPMI 1640+5% heat inactivated FBS+ and 2 mM L-glutamine) at 4×10^4 cells/ml (dependent upon cell type) and plated into the middle 240 wells of 384 well tissue culture plates (Corning CellBind, black-wall plates) 25 μl/well aliquots; 50 μl of growth media was aliquoted into the outer wells. There were 3 plates for each cell line.
(§3) The plates were incubated overnight at 37° C., in 5% humidified CO2.
(§4) The phytocannabinoid test compounds were prepared in 100% DMSO vehicle at a stock concentration of 20 and 40 mM.
(§5) Starting with the 20 mM stock in DMSO, this was serially diluted (2 fold) in DMSO in a 96-well plate, to 20 (no dilution), 10, 5, 2.5, 1.25, 0.625, 0.315, 0.157 and […]. Following this, 10 ul of each compound dilution was diluted into 990 ul of 1% (v/v) FBS media in a deep well block making the final concentrations of 200, 100, 50, 25, 12.5, 6.25, 3.125, 1.56 and 0.79 μM (2× final assay concentrations and 1% DMSO).
(§6) An equal volume of each cannabinoid in the combination (stock concentration 40 mM) was mixed together to make a stock of 20 mM of each cannabinoid in DMSO. This was serially diluted (2 fold) in DMSO in a 96-well plate, to 20 (no dilution), 10, 5, 2.5, 1.25, 0.625, 0.315, 0.157 and […]. Following this, 10 ul of each combination dilution was diluted into 990 ul of 1% (v/v) FBS media in a deep well block making the final concentrations of 200, 100, 50, 25, 12.5, 6.25, 3.125, 1.56 and 0.79 μM (2× final assay concentrations and 1% DMSO).
(§7) Cisplatin (stock of 1 mg/ml=3.33 mM in water) was diluted in 1% FBS media to give a stock concentration of 1 mM. This was then diluted in 1% FBS media from the stock solution to 200 μM, then serially diluted (3-fold) in 1% FBS media to 200 (no dilution), 66.66, 22.22, 7.41, 2.47, 0.82, 0.27, 0.09, 0.03 μM (2× final assay concentrations; no DMSO).
(§8) The plates were incubated for 72 h at 37° C. in 5% humidified CO2. To develop the plates, at 72 h, 10 μl of CellTiter-Blue™ reagent was added to each test/blank well.
(§9) The plates were incubated at 37° C., 5% humidified CO2. Fluorescence was measured using a Flex II Station plate reader (570 nm excitation wavelength, 600 nm emission wavelength, 590 nm cut-off) after 3 h.
(§10) The phytocannabinoid compounds CBD, CBGA, CBG, CBDA, THCV and THC were tested on a panel of lung (A549, NCI-H460), pancreatic (PANC1, Mia-Pa-Ca-2), melanoma (WM115, A375), ovarian (OVCAR3, SKOV3), gastric (MKN45, HGC-27), renal (ACHN) and bladder (RT112) cancer cell lines according to the protocol for 72 h in media containing 1% FBS.
(§11) The IC50 values for each phytocannabinoid and combination of CBD with the other phytocannabinoids was calculated for each cell line. The raw data values expressed in relative fluorescent units were normalised to the vehicle for each individual plate and any reduction in fluorescence indicated a decrease in viability.
(§12) This calculation was as described in Example 1 above.
For orientation: Alamar Blue is a resazurin reagent that responds to reducing activity.

For a further assay, the system named is SKOV3. Description: Cell viability (CellTiter-Blue, 72 h), SKOV3 ovarian cancer cells. As to conditions: SKOV3, 1% FBS, 72 h; read-out: Cell line IC50 value. The procedure: as §1, §2, §3, §4, §5, §6, §7, §8, §9, §10, §11, §12
The test system of the next assay is MKN45. Briefly: Cell viability (CellTiter-Blue, 72 h), MKN45 gastric cancer cells. The following applies: MKN45, 1% FBS, 72 h; read-out: Cell line IC50 value. The procedure:
as §1, §2, §3, §4, §5, §6, §7, §8, §9, §10, §11, §12

Another assay deals with HGC-27. Briefly: Cell viability (CellTiter-Blue, 72 h), HGC-27 gastric cancer cells. As to conditions: HGC-27, 1% FBS, 72 h; read-out: Cell line IC50 value. As to the method:
as §1, §2, §3, §4, §5, §6, §7, §8, §9, §10, §11, §12

A further assay has as its system OVCAR3. Description: Cell viability (CellTiter-Blue, 72 h), OVCAR3 ovarian cancer cells. The following applies: OVCAR3, 1% FBS, 72 h; read-out: Cell line IC50 value. As to the method: as §1, §2, §3, §4, §5, §6, §7, §8, §9, §10, §11, §12
In another assay the test system is WM115. Briefly: Cell viability (CellTiter-Blue, 72 h), WM115 melanoma cells. The following applies: WM115, 1% FBS, 72 h; read-out: Cell line IC50 value. The procedure: as §1, §2, §3, §4, §5, §6, §7, §8, §9, §10, §11, §12
For another assay, the system named is A375. Description: Cell viability (CellTiter-Blue, 72 h), A375 melanoma cells. The following applies: A375, 1% FBS, 72 h; read-out: Cell line IC50 value. As to the method: as §1, §2, §3, §4, §5, §6, §7, §8, §9, §10, §11, §12
The test system of a further assay is Mia-Pa-Ca-2. Description: Cell viability (CellTiter-Blue, 72 h), Mia-Pa-Ca-2 pancreatic cancer cells. The following applies: Homo sapiens, MIA PaCa-2, 72 h, read-out: Cell line IC50 value. The procedure:
as §1, §2, §3, §4, §5, §6
(§13) Gemcitabine SOC was prepared in 100% DMSO to give a stock concentration of 20 mM. This was then serially diluted (3 fold) in DMSO in a 96-well plate, to 20 (no dilution), 6.6, 2.2, 0.741, 0.247, 0.082, 0.027, 0.009 and 0.003 mM. Following this, 10 ul of each dilution was further diluted into 990 ul of 1% (v/v) FBS media making the final concentrations of 200 (no dilution), 66.66, 22.22, 7.41, 2.47, 0.82, 0.27, 0.09, 0.03 μM (2× final assay concentrations and 1% DMSO).
as §8, §9, §10, §11, §12

The next assay has as its system PANC-1. Description: Cell viability (CellTiter-Blue, 72 h), PANC-1 pancreatic cancer cells. As to conditions: Homo sapiens; PANC-1, 1% FBS, 72 h; read-out: Cell line IC50 value. As to the method:
as §1, §2, §3, §4, §5, §6, §13, §8, §9, §10, §11, §12

Broadly, the IC50 is the concentration that gives 50% inhibition.

Take `N.N.[Cl][Pt][Cl]` [Cisplatin, reference compound]: the IC50 was determined as 27 µM with RT112; 4.5 µM in the assay on SKOV3; 9.7 µM in the assay on MKN45; 47 µM in the assay with HGC-27; 7.7 µM in the assay with OVCAR3; 35 µM in the assay with WM115. The IC50 in the assay with A375 was determined as 6.3 µM.

For the compound `Nc1ccn([C@@H]2O[C@H](CO)[C@@H](O)C2(F)F)c(=O)n1` [Gemcitabine, reference compound], the IC50 in the assay with Mia-Pa-Ca-2 and in the assay on PANC-1 was greater than 100 µM in each case.
